According to patent US20080081075A1, “Multifunctional mixed micelle of graft and block copolymers and preparation thereof” (National Tsing Hua University, priority 2006, published 2008):

How the values were obtained:
HeLa cells = assay: Cytotoxicity evaluation, MTT assay; assay type: cell-based; conditions: 48 h
Experimental: The cytotoxicity of each sample was determined by measuring the inhibition of cell growth using a tetrazolium dye (MTT) assay. […] HeLa cells (5×10^3 cell/mL) harvested in a logarithmic growth phase were seeded on 96 wells in Dulbecco's modified Eagle's medium (DMEM) with 10% fetal bovine serum (FBS) in a humidified atmosphere of 5% CO2 at 37° C. After the HeLa cells had been incubated in a logarithmic growth phase, samples with various concentrations of Dox were added for 48 h of co-culturing. At the end of the experiment, the MTT assay was conducted and the percentage of cell viability was calculated. Additionally, material cytotoxicities were measured using HeLa cells (5×10^3 cell/mL). The experimental process was identical to that described above.
HeLa cells (5×10^3 cell/ml) were used to study the cytotoxicity of free Dox and Dox-loaded mixed micelle by measuring the inhibition of cell growth using a tetrazolium dye (MTT) assay.
The Dox-loaded multifunctional micelles and free Dox were tested for in vitro cytotoxicity using a tetrazolium dye (MTT) method. The MTT-based cytotoxic activities of the Dox-loaded multifunctional micelles and free DOX were compared after 24 h and 72 h incubation with HeLa cells.

[1] = tested on: HepG2 (human hepatocellular carcinoma) cells; assay: Internalization evaluation by confocal laser scanning microscopy with LysoTracker; assay type: cell-based; conditions: Dox ca. 10 μg/mL
Experimental: Internalization Evaluation. Accumulated Dox in HepG2 cells was localized using a Carl Zeiss LSM5 PASCAL confocal laser scanning microscope (CLSM). The […] cells were seeded on coverslides for 24 h and then treated with free Dox or Dox-loaded mixed micelles. Dox-loaded mixed micelles were washed with PBS twice to remove untrapped Dox before use. The concentration of Dox was ca. 10 μg/mL. After an interval, the cells were washed twice with PBS; then, the LysoTracker was added in a culture medium without FBS. After 30 min of incubation, the cells were washed with PBS and mounted on a slide with 4 wt % paraformaldehyde for CLSM observation. Fluorescence observation was carried out with a confocal microscope at 488 nm for excitation and an LP (long-pass) filter of 590 nm for Dox detection. […]
Confocal laser scanning microscopy (CLSM) was used to observe the intracellular drug release of mixed micelles. Confocal images were taken to observe the time-dependent fluorescence intensity of LysoTracker and Dox after mixed micelles were incubated with HepG2 (human hepatocellular carcinoma) cells. The red fluorescence from Dox and the green fluorescence from LysoTracker were detected in the intracellular compartment. […] Fluorescence from LysoTracker occurred in both the nucleus and cytoplasm because these are acidified by doxorubicin hydrochloride. […]

## COc1cccc2c1C(=O)c1c(O)c3c(c(O)c1C2=O)C[C@@](O)(C(=O)CO)C[C@@H]3O[C@H]1C[C@H](N)[C@H](O)[C@H](C)O1 [free Dox, doxorubicin]
HeLa cells
  activity compared with Dox-loaded mixed micelles and Dox-loaded Graft I micelles: more potent activity
[1]; 1 h incubation
  localization of Dox fluorescence: concentrated in the nucleus
[1]; 8 h incubation
  localization of Dox fluorescence: concentrated in the nucleus
